Test results as given in patent US12011444B2, “N-substituted indole derivatives as PGE2 receptor modulators” (Idorsia Pharmaceuticals Ltd, priority 2015, dated 2024).

What was measured:
EP4 = EP4 (Homo sapiens (Human), UniProt P35408); test: hEP4 cAMP assay (BT549 breast cancer cells, HTRF cAMP); type: cell-based; settings: antagonistic activity; mean values where measured multiple times
Method: Plate is pre-incubated 45 minutes at room temperature. Subsequently, 2.5 microliters of PGE2 (final conc. 6 nM) are transferred into the assay plate. Plate is incubated 30 minutes at room temperature.

EP2 = EP2 (Homo sapiens (Human), UniProt P43116);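 also: antagonism of PGE2-stimulated cAMP accumulation in SF295 human glioblastoma cells with endogenous EP2, cAMP read by HTRF, expressed relative to DMSO control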
Chain of EP2 (P43116 whole entry): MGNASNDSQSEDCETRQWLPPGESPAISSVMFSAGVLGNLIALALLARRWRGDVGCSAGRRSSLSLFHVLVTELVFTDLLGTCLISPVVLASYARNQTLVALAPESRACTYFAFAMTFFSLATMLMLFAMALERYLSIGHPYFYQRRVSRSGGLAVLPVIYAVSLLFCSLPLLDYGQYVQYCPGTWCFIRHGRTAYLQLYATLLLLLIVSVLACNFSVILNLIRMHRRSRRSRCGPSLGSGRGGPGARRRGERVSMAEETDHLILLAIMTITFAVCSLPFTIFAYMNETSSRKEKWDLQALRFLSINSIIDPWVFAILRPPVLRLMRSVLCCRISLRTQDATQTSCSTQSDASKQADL

Chain of EP4 (P35408 whole entry): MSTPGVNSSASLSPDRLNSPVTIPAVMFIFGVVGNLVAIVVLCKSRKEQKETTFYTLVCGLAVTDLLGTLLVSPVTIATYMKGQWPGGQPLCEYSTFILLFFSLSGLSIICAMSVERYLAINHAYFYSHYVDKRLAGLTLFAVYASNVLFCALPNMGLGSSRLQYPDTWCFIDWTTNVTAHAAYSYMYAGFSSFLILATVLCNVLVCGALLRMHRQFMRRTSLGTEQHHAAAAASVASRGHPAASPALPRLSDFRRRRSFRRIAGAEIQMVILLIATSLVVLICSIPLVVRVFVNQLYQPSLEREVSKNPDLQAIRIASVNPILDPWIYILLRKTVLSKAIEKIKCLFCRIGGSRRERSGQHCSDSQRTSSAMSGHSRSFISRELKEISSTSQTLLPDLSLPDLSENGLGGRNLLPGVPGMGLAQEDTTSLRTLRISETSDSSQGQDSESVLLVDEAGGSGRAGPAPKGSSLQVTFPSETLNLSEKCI

Compound | IC50 (EP4) | IC50 (EP2)
CCCc1cc(-c2cc(NCCn3c(C)cc4c(OC)cc(F)cc43)ncn2)cc(F)c1C(=O)O [compound 521] | 0.064 µM | 0.017 µM
CCCOc1cc(-c2cc(NCCn3c(C)cc4c(C)cc(Cl)cc43)ncn2)cc(Cl)c1C(=O)O [compound 522] | 0.217 µM | 0.021 µM
CCCOc1cc(-c2cc(NCCn3c(C)cc4c(C)cc(F)cc43)ncn2)cc(Cl)c1C(=O)O [compound 523] | 0.141 µM | 0.035 µM
CCCOc1cc(-c2cc(NCCn3c(C)cc4c(C)cc(F)cc43)ncn2)cc(F)c1C(=O)O [compound 524] | 0.377 µM | 0.036 µM
COc1cc(F)c(F)c2c1cc(C)n2CCNc1cc(-c2cc(C(F)(F)F)c(C(=O)O)s2)ncn1 [compound 525] | 0.014 µM | 0.038 µM
Cc1cc(F)cc2c1cc(C)n2CCNc1cc(-c2ccc(C(=O)O)c(OCC(C)C)c2)ncn1 [compound 526] | 0.23 µM | 0.01 µM
CCCCOc1cc(-c2cc(NCCn3c(C)cc4c(C)cc(F)cc43)ncn2)ccc1C(=O)O [compound 527] | 0.134 µM | 0.008 µM
COc1cc(F)cc2c1cc(C)n2CCNc1cc(-c2ccc(C(=O)O)c(C(C)(C)C)c2)ncn1 [compound 528] | 0.151 µM | 0.119 µM
COc1cc(Cl)cc2c1cc(C)n2CCNc1cc(-c2ccc(C(=O)O)c(CC(C)C)c2)ncn1 [compound 529] | 0.11 µM | 0.019 µM
COc1cc(F)cc2c1cc(C)n2CCNc1cc(-c2ccc(C(=O)O)c(CC(C)C)c2)ncn1 [compound 530] | 0.05 µM | 0.021 µM
CCOc1cc(-c2cc(NCCn3c(C)cc4c(C)ccc(F)c43)ncn2)cc(CC)c1C(=O)O [compound 532] | 0.828 µM | 0.033 µM
CCCCOc1cc(-c2cc(NCCn3c(C)cc4c(C)ccc(F)c43)ncn2)ccc1C(=O)O [compound 533] | 0.088 µM | 0.003 µM
Cc1ccc(F)c2c1cc(C)n2CCNc1cc(-c2ccc(C(=O)O)c(OCC(C)C)c2)ncn1 [compound 534] | 0.091 µM | 0.008 µM
COc1ccc(Cl)c2c1cc(C)n2CCNc1cc(-c2ccc(C(=O)O)c(CC(C)C)c2)ncn1 [compound 536] | 0.172 µM | 0.027 µM
COc1ccc(F)c2c1cc(C)n2CCNc1cc(-c2ccc(C(=O)O)c(CC(C)C)c2)ncn1 [compound 537] | 0.081 µM | 0.022 µM
COc1c(F)ccc2c1cc(C)n2CCNc1cc(-c2ccc(C(=O)O)c(CC(C)C)c2)ncn1 [compound 538] | 0.261 µM | 0.064 µM
COc1ccc(F)c2cc(C)n(CCNc3cc(-c4ccc(C(=O)O)c(CC(C)C)c4)ncn3)c12 [compound 539] | 0.948 µM | 0.16 µM
COc1ccc(F)c2c1cc(C)n2CCNc1cc(-c2cc(C(F)(F)F)c(C(=O)O)s2)nc(C)n1 [compound 540] | 0.023 µM | 0.018 µM
COc1cc(F)cc2c1cc(C)n2CCNc1cc(-c2cc(C(F)(F)F)c(C(=O)O)s2)nc(C)n1 [compound 541] | 0.025 µM | 0.019 µM
CCSc1cc(-c2cc(NCCn3c(C)cc4c(OC)c(F)cc(Cl)c43)ncn2)ccc1C(=O)O [compound 542] | 0.522 µM | 0.044 µM

Compound | IC50 (EP4) | IC50 (EP2)
CCOc1cc(-c2cc(NCCn3c(C)cc4c(C(F)(F)F)ccc(F)c43)ncn2)ccc1C(=O)O [compound 543] | 0.25 µM | 0.99 µM
Cc1cc(F)cc2c1cc(C)n2CCNc1cc(-c2ccc(-c3csc(C(=O)O)n3)cc2)ncn1 [compound 544] | 0.178 µM | 0.047 µM
Cc1cc(F)cc2c1cc(C)n2CCNc1cc(-c2ccc(-c3nc(C(=O)O)cs3)cc2)ncn1 [compound 545] | 0.119 µM | 0.029 µM
Cc1ccc(F)c2c1cc(C)n2CCNc1cc(-c2ccc(-c3nc(C(=O)O)cs3)cc2)ncn1 [compound 546] | 0.057 µM | 0.016 µM
Cc1cc(F)cc2c1cc(C)n2CCNc1cc(-c2ccc(-c3cncn3C)cc2)ncn1 [compound 547] | 0.232 µM | 0.063 µM
Cc1nc(-c2ccc(-c3cc(NCCn4c(C)cc5c(C)cc(F)cc54)ncn3)cc2)c[nH]1 [compound 548] | 0.061 µM | 0.006 µM
COc1ccc(F)c2c1cc(C)n2CCNc1cc(-c2ccc(C(=O)NCCN(C)C)cc2)ncn1 [compound 549] | 0.865 µM | 0.131 µM
Cc1cc2c(Cl)cc(Cl)cc2n1CCNc1cc(-c2ccc(-c3csc(C(=O)O)n3)cc2)ncn1 [compound 550] | 0.573 µM | 0.033 µM
Cc1cc2c(Cl)cc(Cl)cc2n1CCNc1cc(-c2ccc(-c3nc(C(=O)O)cs3)cc2)ncn1 [compound 551] | 0.339 µM | 0.005 µM
Cc1cc(F)cc2c1cc(C)n2CCNc1cc(-c2ccc(-c3cnc(N)o3)cc2)ncn1 [compound 552] | 0.118 µM | 0.026 µM
Cc1nnc(-c2ccc(-c3cc(NCCn4c(C)cc5c(C)ccc(F)c54)ncn3)cc2)o1 [compound 553] | 0.192 µM | 0.102 µM
CCNC(=O)Nc1ccc(-c2cc(NCCn3c(C)cc4c(OC)ccc(Cl)c43)ncn2)cc1OC [compound 554] | 0.065 µM | 0.056 µM
CCNC(=O)Nc1ccc(-c2cc(NCCn3c(C)cc4c(OC)ccc(F)c43)ncn2)cc1OC [compound 555, 1-Ethyl-3-(4-{6-[2-(7-fluoro-4-methoxy-2-methyl-indol-1-yl)-ethylamino]-pyrimidin-4-yl}-2-methoxy-phenyl)-urea] | 0.028 µM | 0.023 µM
COc1ccc(F)c2c1cc(C)n2CCNc1cc(-c2cccc(-n3cccn3)c2)ncn1 [compound 556] | 0.418 µM | 0.054 µM
COc1cccc2c1cc(C)n2CCNc1cc(-c2ccc(-c3nc(C(=O)O)cs3)cc2)ncn1 [compound 557] | 0.078 µM | 0.005 µM
COc1cc(F)cc2c1cc(C)n2CCNc1cc(-c2ccc(-c3ccon3)cc2)ncn1 [compound 558] | 0.111 µM | 0.016 µM
Cc1ccc(F)c2c1cc(C)n2CCNc1cc(-c2ccc(C(=O)O)c(NCC(F)(F)F)c2)ncn1 [compound 560, 4-{6-[2-(7-Fluoro-2,4-dimethyl-indol-1-yl)-ethylamino]-pyrimidin-4-yl}-2-(2,2,2-trifluoro-ethylamino)-benzoic acid] | 0.107 µM | 0.007 µM
Cc1ccc(F)c2c1cc(C)n2CCNc1cc(-c2ccc(-c3ccccn3)cc2)ncn1 [compound 561] | 0.374 µM | 0.102 µM
CCOc1cc(-c2cc(NCCn3c(C)cc4c(C)ccc(F)c43)ncn2)ccc1CNCCOC [compound 562] | 0.547 µM | 0.359 µM
CNS(=O)(=O)c1ccc(-c2cc(NCCn3c(C)cc4c(C)ccc(F)c43)ncn2)cc1C(F)(F)F [compound 563] | 0.601 µM | 0.111 µM

Compound | IC50 (EP4) | IC50 (EP2)
COc1ccc(F)c2c1cc(C)n2CCNc1cc(-c2ccc(C3(C(=O)O)CC3)c(F)c2)ncn1 [compound 564] | 0.317 µM | 0.075 µM
Cc1nc(-c2ccc(-c3cc(NCCn4c(C)cc5c(C)cc(F)cc54)ncn3)cc2)co1 [compound 565] | 0.434 µM | 0.077 µM
COc1cccc2c1cc(C)n2CCNc1cc(-c2ccc(-c3csc(C)n3)cc2)ncn1 [compound 566] | 0.537 µM | 0.046 µM
COc1ccc(F)c2c1cc(C)n2CCNc1cc(-c2ccc(S(N)(=O)=O)c(C(F)(F)F)c2)ncn1 [compound 567, 4-{6-[2-(7-Fluoro-4-methoxy-2-methyl-indol-1-yl)-ethylamino]-pyrimidin-4-yl}-2-trifluoromethyl-benzenesulfonamide] | 0.089 µM | 0.017 µM
COc1cccc2c1cc(C)n2CCNc1cc(-c2ccc(C(=O)O)c(NCC(F)(F)F)c2)ncn1 [compound 568, 4-{6-[2-(4-Methoxy-2-methyl-indol-1-yl)-ethylamino]-pyrimidin-4-yl}-2-(2,2,2-trifluoro-ethylamino)-benzoic acid] | 0.118 µM | 0.001 µM
Cc1cc(F)cc2c1cc(C)n2CCNc1cc(-c2ccc(-c3nnc(N)s3)cc2)ncn1 [compound 569] | 0.077 µM | 0.017 µM
CCCc1cc(-c2cc(NCCn3c(C)cc4c(OC(F)(F)F)ccc(F)c43)ncn2)ccc1C(=O)O [compound 570] | 0.309 µM | 0.773 µM
COc1cc(F)cc2c1cc(C)n2CCNc1cc(-c2ccc(-c3cnc(N)o3)cc2)ncn1 [compound 572] | 0.045 µM | 0.018 µM
COc1ccc(F)c2c1cc(C)n2CCNc1cc(-c2ccc(-c3cnc(N)o3)cc2)ncn1 [compound 573] | 0.021 µM | 0.007 µM
COc1ccc(F)c2c1cc(C)n2CCNc1cc(-c2ccc(-c3nnc(C)o3)cc2)ncn1 [compound 574] | 0.208 µM | 0.033 µM
Cc1nc(-c2ccc(-c3cc(NCCn4c(C)cc5c(C)cc(F)c(F)c54)ncn3)cc2)c[nH]1 [compound 575] | 0.052 µM | 0.022 µM
Cc1cc(F)c(F)c2c1cc(C)n2CCNc1cc(-c2ccc(-c3cncn3C)cc2)ncn1 [compound 576] | 0.355 µM | 0.399 µM
Cc1cc(F)c(F)c2c1cc(C)n2CCNc1cc(-c2ccc(-c3cnc(N)o3)cc2)ncn1 [compound 577] | 0.118 µM | 0.114 µM
COc1cc(F)cc2c1cc(C)n2CCNc1cc(-c2ccc(-c3csc(C(=O)O)n3)cc2)ncn1 [compound 578] | 0.052 µM | 0.009 µM
COc1cc(F)cc2c1cc(C)n2CCNc1cc(-c2ccc(-c3nc(C(=O)O)cs3)cc2)ncn1 [compound 579] | 0.041 µM | 0.011 µM
COc1ccc(F)c2c1cc(C)n2CCNc1cc(-c2ccc(-c3nc(C(=O)O)cs3)cc2)ncn1 [compound 580] | 0.032 µM | 0.004 µM
COc1cc(F)cc2c1cc(C)n2CCNc1cc(-c2ccc(-c3c[nH]c(C)n3)cc2)ncn1 [compound 581] | 0.033 µM | 0.005 µM
COc1cc(F)cc2c1cc(C)n2CCNc1cc(-c2ccc(-c3cncn3C)cc2)ncn1 [compound 582] | 0.161 µM | 0.05 µM
